Where two headings read alike, the source gives them in different places. Square brackets hold non-standard residues; d marks the D form. Peptide text beside a SMILES is read from it. * marks the point of attachment. Gly(N-(2R-Ph-propyl)) = C[C@@H](CNCC(=O)O)c1ccccc1; Piperidin1yl(4-NH2,4-COOH) = NC1(C(=O)O)CCN(*)CC1; dPhLac = O=C(O)[C@H](O)Cc1ccccc1; X4 = COC(=O)NC1CCN(*)CC1
Experiments:
κ receptor = κ receptor (Homo sapiens (Human), UniProt P41145); assay: Competitive Kappa receptor binding assay (3H-U69593)
μ receptor = μ receptor (Homo sapiens (Human), UniProt P35372); assay: μ receptor affinity assay (3H-DAMGO); format: binding
δ receptor = δ receptor (Homo sapiens (Human), UniProt P41143); assay: Competitive delta receptor binding assay (3H-DADLE)
[1] = target: κ-opioid receptor (Kappa) (Homo sapiens (Human), UniProt P41145); assay: In vitro functional assay, HTRF cAMP-Gi in CHO-K1-OPRK1 cells; format: cell-based
ICR mice [2] = assay: Acetic acid writhing test in mice; format: in vivo; conditions: Mus musculus, read-out: Acetic acid writhing in mice ED50
[3] = PK and blood-brain barrier permeability in mice; format: in vivo; conditions: male ICR mice, intravenous 1 mg/kg; for AUC(0-inf) / Vd / clearance / half-life / Cmax: plasma; for half-life: read-out: t½ (converted)
Protocol: The compounds of the present disclosure were investigated for pharmacokinetic characteristics and blood-brain barrier permeability in mice.
Healthy male ICR mice were randomly grouped, 6 animals per group. For each test compound, 3 groups of animals were used. The first group of animals was used for collecting blood and brain 5 min after the administration, and the second group of animals and the third group of animals were used for cross blood collection at subsequent time points; each test compound was intravenously administered (1 mg/kg) to corresponding groups of mice, and blood sampling via submaxillary veins of the mice was carried out at different time points. Drug contents in plasma and brain tissues at different time points were measured by an LC-MS/MS method, the brain-to-blood ratio B/P was calculated by using EXCEL software, and pharmacokinetic parameters were calculated by using DAS3.0 software.

ICR mice [4] = assay: Sedation safety window; conditions: sedation side effect ED50 (autonomic activity test)/efficacy ED50 (acetic acid writhing test)
[5] = Autonomous activity test in mice; conditions: male, ICR, mouse, in vivo, iv
ICR mice [6] = conditions: mouse, in vivo
hERG = hERG (Homo sapiens (Human), UniProt Q12809); assay: in vitro; conditions: pH 7.4
in vivo = conditions: male, ICR, mouse, iv
[7] = single intravenous injection, male ICR mice
[8] = blood and brain 5 min after administration

## CC(C)C[C@@H](NC(=O)[C@@H](Cc1ccccc1)NC(=O)N(Cc1ccccc1)C1CCNC1)C(=O)N[C@H](CCCCN)C(=O)N1CCC(N)(C(=O)O)CC1 (stereo partly shown) [Compound 27]
κ receptor
  Ki: 0.88 nM
μ receptor
  Ki: > 1000 nM
δ receptor
  Ki: > 1000 nM
[1]
  EC50: 0.87 nM
ICR mice [2]; [7]
  ED50: 0.88 mg/kg
[3]; [8]
  B/P (brain-to-blood ratio): 0.010
[3]; mouse
  AUC(0-inf): 1160 ng·h/mL
  Vd: 0.63 L/kg
  clearance: 14.7 mL/min/kg
  half-life: 30 min
  Cmax: 2320 ng/mL
ICR mice [4]
  Safety window: 5.22
[5]
  ED50 at 30 min: 4.59 mg/kg

## COC(=O)NC1CCN(C(=O)[C@@H](CCCCN)NC(=O)[C@@H](CC(C)C)NC(=O)[C@@H](Cc2ccccc2)NC(=O)[C@H](N)Cc2ccccc2)CC1 [Compound 1A]
κ receptor
  Ki: 0.4 nM
μ receptor
  Ki: > 1000 nM
δ receptor
  Ki: > 1000 nM
[1]
  EC50: 0.05 nM
ICR mice [2]; [7]
  ED50: 0.38 mg/kg
ICR mice [6]
  Safety window: 2.84
hERG
  inhibition at 10 µM: -0.94%
[5]
  ED50 at 30 min: 1.08 mg/kg

## CC(C)C[C@@H](NC(=O)[C@@H](Cc1ccccc1)NC(=O)[C@H](N)Cc1ccccc1)C(=O)N[C@H](CCCCN)C(=O)N1CCS(=N)(=O)CC1 [Compound 1B, (R)—N—((R)-6-amino-1-(1-imino-1-oxo-1λ6-thiomorpholine)-1-oxohex-2-yl)-2-((R)-2-((R)-2-amino-3-phenylpropionylamino)-3-phenylpropionylamino)-4-methylpentanamide]
κ receptor
  Ki: 0.42 nM
μ receptor
  Ki: > 1000 nM
δ receptor
  Ki: > 1000 nM
[1]
  EC50: 0.52 nM
ICR mice [2]; iv
  ED50: 0.2 mg/kg
ICR mice [6]
  Safety window: 2.50
In vivo
  ED50: 0.5 mg/kg
hERG
  inhibition at 10 µM: 1.2%

## COC(=O)C1(N)CCN(C(=O)[C@@H](CCCCN)NC(=O)[C@@H](CC(C)C)NC(=O)[C@@H](Cc2ccccc2)NC(=O)N(CCN)Cc2ccccc2)CC1 [Compound 13-2, methyl 4-amino-1-[(2R)-6-amino-2-[(2R)-2-[(2R)-2-{[2-aminoethyl(benzyl)carbamoyl]amino}-3-phenylpropionylamino]-4-methylpentanoylamino]hexanoyl]piperidine-4-carboxylate]
κ receptor
  Ki: 0.13 nM
μ receptor
  Ki: > 1000 nM
δ receptor
  Ki: > 1000 nM
[1]
  EC50: 0.13 nM
ICR mice [2]; [7]
  ED50: 0.17 mg/kg
[3]; [8]
  B/P (brain-to-blood ratio): BQL**
[3]; mouse
  AUC(0-inf): 1690 ng·h/mL
  Vd: 0.63 L/kg
  clearance: 10 mL/min/kg
  half-life: 43.2 min
  Cmax: 2930 ng/mL
ICR mice [4]
  Safety window: 16.18
[5]
  ED50 at 30 min: 2.75 mg/kg

## CC(C)C[C@@H](NC(=O)[C@@H](Cc1ccccc1)NC(=O)C[C@@H](N)c1ccccc1)C(=O)N[C@H](CCCCN)C(=O)N1CCC(N)(C(=O)O)CC1 [Compound 4-0, 4-amino-1-[(2R)-6-amino-2-[(2R)-2-[(2R)-2-((3R)-3-amino-3-phenylpropionylamino)-3-phenylpropionylamino]-4-methylpentanoylamino]hexanoyl]piperidine-4-carboxylic acid]
κ receptor
  Ki: 2.8 nM
μ receptor
  Ki: > 1000 nM
δ receptor
  Ki: > 1000 nM
[1]
  EC50: 3.62 nM
ICR mice [2]; [7]
  ED50: 1.14 mg/kg
ICR mice [4]
  Safety window: 6.44
[5]
  ED50 at 30 min: 7.34 mg/kg

## CC(C)C[C@@H](NC(=O)[C@@H](Cc1ccccc1)NC(=O)CNC[C@H](C)c1ccccc1)C(=O)N[C@H](CCCCN)C(=O)N1CCC(N)(C(=O)O)CC1 [Comparative Example 1B, reference compound] (H-[Gly(N-(2R-Ph-propyl))][dF][dL][dK]-{Piperidin1yl(4-NH2,4-COOH)})
ICR mice [2]; [7]
  ED50: 0.25 mg/kg
ICR mice [4]
  Safety window: 2.36
[5]
  ED50 at 30 min: 0.59 mg/kg

## CC(C)C[C@@H](NC(=O)[C@@H](Cc1ccccc1)NC(=O)N(CCN)Cc1ccccc1)C(=O)N[C@H](CCCCN)C(=O)N1CCC(N)(C(=O)O)CC1 [Compound 13]
κ receptor
  Ki: 0.13 nM
μ receptor
  Ki: > 1000 nM
δ receptor
  Ki: > 1000 nM
[1]
  EC50: 0.52 nM
ICR mice [2]; [7]
  ED50: 0.23 mg/kg
[3]; [8]
  B/P (brain-to-blood ratio): 0.015
[3]; mouse
  AUC(0-inf): 1350 ng·h/mL
  Vd: 0.38 L/kg
  clearance: 12.3 mL/min/kg
  half-life: 21 min
  Cmax: 2540 ng/mL
hERG
  inhibition at 10 µM: 0.8%
ICR mice [4]
  Safety window: 12.30
[5]
  ED50 at 30 min: 2.83 mg/kg

## COC(=O)NC1CCN(C(=O)[C@@H](CCCCN)NC(=O)[C@@H](CC(C)C)NC(=O)[C@@H](Cc2ccccc2)NC(=O)[C@H](O)Cc2ccccc2)CC1 [Compound 11] (H-[dPhLac][dF][dL][dK]-X4)
κ receptor
  Ki: 0.94 nM
μ receptor
  Ki: > 1000 nM
δ receptor
  Ki: > 1000 nM
[1]
  EC50: 5.1 nM
ICR mice [2]; [7]
  ED50: 1.82 mg/kg
ICR mice [4]
  Safety window: 5.27
[5]
  ED50 at 30 min: 9.6 mg/kg

## CC(C)C[C@@H](NC(=O)[C@@H](Cc1ccccc1)NC(=O)[C@H](N)Cc1ccccc1)C(=O)N[C@H](CCCCN)C(=O)N1CCC2(CC1)OC(=O)Nc1ncccc12 [Compound 4A, (2R)—N-[(2R)-6-amino-1-oxo-1-{2′-oxo-1′H-spiro[piperidine-4,4′-pyrido[2,3-d][1,3]oxazin]-1-yl}hex-2-yl]-2-[(2R)-2-[(2R)-2-amino-3-phenylpropionylamino]-3-phenylpropionylamino]-4-methylpentanamide]
κ receptor
  Ki: 0.3 nM
μ receptor
  Ki: > 1000 nM
δ receptor
  Ki: > 1000 nM
[1]
  EC50: 0.2 nM
ICR mice [2]; [7]
  ED50: 0.41 mg/kg
hERG
  inhibition at 10 µM: 0.9%
ICR mice [4]
  Safety window: 3.05
[5]
  ED50 at 30 min: 1.25 mg/kg

## COC(=O)NC1CCN(C(=O)[C@@H](CCCCN)NC(=O)[C@@H](CC(C)C)NC(=O)[C@@H](Cc2ccccc2)NC(=O)N(C)C(CN)c2ccccc2)CC1 (stereo partly drawn) [Compound 12, methyl N-{1-[(2R)-6-amino-2-[(2R)-2-[(2R)-2-{[(2-amino-1-phenylethyl)(methyl)carbamoyl]amino}-3-phenylpropionylamino]-4-methylpentanoylamino]hexanoyl]piperidin-4-yl}carbamate]
κ receptor
  Ki: 0.53 nM
μ receptor
  Ki: > 1000 nM
δ receptor
  Ki: > 1000 nM
[1]
  EC50: 0.17 nM
[3]; mouse, brain/plasma, blood and brain 5 min after administration, read-out: B/P (brain-to-blood ratio)
  Kp at 5 min: 0.008
[3]; mouse
  AUC(0-inf): 3680 ng·h/mL
  Vd: 0.54 L/kg
  clearance: 4.67 mL/min/kg
  half-life: 85.2 min
  Cmax: 2260 ng/mL
hERG
  inhibition at 10 µM: 2.13%

## CC(C)C[C@@H](NC(=O)[C@@H](Cc1ccccc1)NC(=O)N(C)C(CN)c1ccccc1)C(=O)N[C@H](CCCCN)C(=O)N1CCS(=N)(=O)CC1 (stereo partly shown) [Compound 10]
κ receptor
  Ki: 0.86 nM
μ receptor
  Ki: > 1000 nM
δ receptor
  Ki: > 1000 nM
[1]
  EC50: 1.1 nM
[3]; [8]
  B/P (brain-to-blood ratio): 0.007
[3]; mouse
  AUC(0-inf): 4010 ng·h/mL
  Vd: 0.29 L/kg
  clearance: 4.17 mL/min/kg
  half-life: 49.2 min
  Cmax: 3220 ng/mL

## CC(C)C[C@@H](NC(=O)[C@@H](Cc1ccccc1)NC(=O)N(CCN)Cc1ccccc1)C(=O)N[C@H](CCCCN)C(=O)N1CCC2(CC1)NC(=O)NC2=O [Compound 29]
κ receptor
  Ki: 0.63 nM
μ receptor
  Ki: > 1000 nM
δ receptor
  Ki: > 1000 nM
[1]
  EC50: 0.058 nM
ICR mice [2]; [7]
  ED50: 0.41 mg/kg
[3]; [8]
  B/P (brain-to-blood ratio): 0.010
[3]; mouse
  AUC(0-inf): 3340 ng·h/mL
  Vd: 0.32 L/kg
  clearance: 5.17 mL/min/kg
  half-life: 44.4 min
  Cmax: 4710 ng/mL
ICR mice [4]
  Safety window: 3.28
[5]
  ED50 at 30 min: 1.35 mg/kg

## CC(C)C[C@@H](NC(=O)[C@@H](Cc1ccccc1)NC(=O)N(C)C(CN)c1ccccc1)C(=O)N[C@H](CCCCN)C(=O)N1CCC(NC(=O)OC2CCOCC2)CC1 (stereo partly shown) [Compound 33]
κ receptor
  Ki: 0.56 nM
μ receptor
  Ki: > 1000 nM
δ receptor
  Ki: > 1000 nM
[1]
  EC50: 0.81 nM

## CC(=O)N=S1(=O)CCN(C(=O)[C@@H](CCCCN)NC(=O)[C@@H](CC(C)C)NC(=O)[C@@H](Cc2ccccc2)NC(=O)[C@H](N)Cc2ccccc2)CC1 [Compound 3B]
κ receptor
  Ki: 1.05 nM
μ receptor
  Ki: > 1000 nM
δ receptor
  Ki: > 1000 nM
[1]
  EC50: 1 nM
ICR mice [2]; iv
  ED50: 0.42 mg/kg
ICR mice [6]
  Safety window: 7.74
hERG
  inhibition at 10 µM: 1.13%

## CC(C)C[C@@H](NC(=O)[C@@H](Cc1ccccc1)NC(=O)N(CCN)Cc1ccccc1)C(=O)N[C@H](CCCCN)C(=O)N1CCS(=O)(=O)CC1 [Compound 21]
κ receptor
  Ki: 0.33 nM
μ receptor
  Ki: > 1000 nM
δ receptor
  Ki: > 1000 nM
[1]
  EC50: 0.68 nM
ICR mice [2]; [7]
  ED50: 0.5 mg/kg
[3]; [8]
  B/P (brain-to-blood ratio): 0.010
[3]; mouse
  AUC(0-inf): 2670 ng·h/mL
  Vd: 0.63 L/kg
  clearance: 6.33 mL/min/kg
  half-life: 69 min
  Cmax: 3460 ng/mL
ICR mice [4]
  Safety window: 2.82
[5]
  ED50 at 30 min: 1.42 mg/kg

Reference: patent US20250230129A1, “POLYAMIDE COMPOUNDS, METHOD FOR PREPARING SAME, AND MEDICAL USE THEREOF” (priority 2022, published 2025)
